Data set [1] has as its system human polymorphonuclear leukocytes (PMNL). The experiment in a line: ROS generation from PMNL, lucigenin-amplified chemiluminescence. The data set is classed as cell-based. Particulars: Homo sapiens, PMNL, IC₅₀-values. How it is done: Human PMNL were isolated from fresh blood (anticoagulated with sodium citrate) by erythrocyte sedimentation with 1% dextran (Pharmacia, Uppsala, Sweden) centrifugation of the resulting supernatant, followed by hypoosmotic lysis to remove red blood cells. Washed cells were adjusted to 2 x 10⁶ cells/ml in PBS containing fetal calf serum (2%; v/v). Test compounds dissolved in DMSO were diluted with the assay buffer to a final DMSO concentration of 0.5% (v/v).
Then the test compounds (100 µl) were added with subsequent recording for another 16 min period. […] Results were expressed as percent of inhibition or stimulation of the controls (mean of two integrals) in a single experiment.

Another data set deals with PMHL. The data set is described as follows: Nonspecific cytotoxicity, trypane blue exclusion test. The format is cell-based, human. How it is done: Nonspecific cytotoxicity of the test compounds on PMHL was assessed by […] blue exclusion test.
Data set [2] has as its system HaCaT cells. The data set is described as follows: Cytotoxicity, LDH release into the culture medium. Particulars: 48 h after onset of drug exposure. (LDH in the medium is a marker of cell lysis.)
Procedure: HaCaT cells were grown as described.
Cytotoxicity was assessed by measurements of the content of intracellular lactate dehydrogenase (LDH) activity released into the culture medium during 48 h after onset of drug exposure. Possible drug induced detachment of the HaCaT cells from the plate was assessed by collection of the medium from the wells and centrifugation (80 x g, 10 min.) The resulting pellet was suspended in 10 µl medium and cells were counted in a haemocytometer.
In data set [3] the test system is Normal human keratinocytes. The data set is described as follows: Cornified envelope formation (keratinocyte differentiation). The format is cell-based. Conditions: 4 h plus 48 h exposure, increasing concentrations. The method, then: Normal human keratinocytes were grown to confluence at low calcium concentration in the presence of 5% FCS, 1 µM isoproterenol and 10 ng EGF per ml. They were first exposed for 4 h to increasing concentrations of test compounds and subsequently reincubated for 48 h in medium containing normal calcium concentration and the same additives, test compounds and [³H]-leucine (1 µCi/ml). Thereafter, both spontaneous and ionophore-induced cornified envelope (CE) formation was determined [King et al. (1986) Exp. Cell. Res., 167: 252].

Data set [4] relates to HaCaT cells. The experiment in a line: Keratinocyte morphology, phase contrast microscopy. Particulars: 30 nM, monitored during 72 hours. The format is cell-based, human. The method, then: HaCaT cells were cultured under standard conditions. 24 h after plating (2.5 x 10⁶ cells) the medium was replaced by medium containing the test compounds. During 72 hours cell morphology was frequently monitored using a phase contrast photomicroscope (Olympus IMT-2, Tokyo, Japan).

Data set [5] deals with TPA-induced ear edema in mice. The data set is described as follows: Intraperitoneal administration, TPA-induced ear edema in mice. The format is in vivo. Particulars: intraperitoneally, 30, 10 or 3.3 mg/kg. How it is done:
Mice were injected intraperitoneally with 30, 10 or 3.3 mg/kg body weight of the test substances, sphingosine in carboxymethylcellulose (0.5%) and tiflucarbine in physiologic Saline, 10 ml/kg body weight. After 60 minutes the mire were challenged on the left ear with a 0.01 wt% solution of 12-O-tetradecanoylphorbol-13-acetate (TPA) in a 80/20 mixture of acetone/water. At 0, 3, 6 and 24 h after challenge, ear thickness was determined.

The test system of data set [6] is PKC from the central nervous system. The data set is described as follows: Phosphorylation of synaptosomal plasma membranes: B-50 phosphorylation. Conditions: for phosphorylation of B-50 (% of control): without addition of CaM. The data set is classed as biochemical. The method, then: Subcellular fractionation and phosphorylation assay were performed according to Kristjansson et al., (1982). […] After a preincubation at 30°C for 5 min, the phosphorylation reaction was started by adding the ATP. The reaction was stopped after 15 sec. All compounds to be tested were present at the start of the preincubation. […]

The next data set has as its system 50 kDa protein. The experiment in a line: Phosphorylation of synaptosomal plasma membranes: CaM-dependent phosphorylation of the 50 kDa protein. The data set is classed as biochemical. Particulars: in the presence of added CaM. How it is done:
Subcellular fractionation and phosphorylation assay were performed according to Kristjansson et al., (1982). […] After a preincubation at 30°C for 5 min, the phosphorylation reaction was started by adding the ATP. The reaction was stopped after 15 sec. All compounds to be tested were present at the start of the preincubation. […] Phosphorylation of B-50 and the 50 kDa protein, which was only phosphorylated after addition of CaM, was measured in the presence of exogenous CaM (3 units/assay) and quantified.

Another data set concerns rat brain synaptosomes. The experiment in a line: Noradrenaline release from permeated synaptosomes. The data set is classed as cell-based. Conditions: 100 µM. The method, then:
Highly purified synaptosomes were prepared according to Dunkley and Robinson (1987). The synaptosomes were diluted with 3 ml buffer A (123 mM NaCl, 5 mM KCl, 2 mM CaCl₂, […], 1.15 mM NaH₂PO₄, 5.6 mM glucose, 20 mM PIPES pH 6.8, gassed with O₂:CO₂, 95:5) and incubated for 15 min at 37°C. Then 2.5 µCi noradrenalin (NA) was added, incubation was continued for 15 min and the synaptosomes were centrifuged for 20 min at 600 x g. The resulting pellet was washed twice in buffer A without CaCl₂ and resuspended (1 mg protein/ml).
For measurement of NA release, prelabeled synaptosomes were incubated at 37°C in buffer A containing Na₂ATP and EGTA-buffered Ca²⁺ in concentrations as indicated (final volume 120 µl). The release reaction was started by adding synaptosomes (20 µg protein) to the reaction mixture and terminated after 5 min by 30 sec centrifugation at 10,000 x g. The supernatant (90 µl) was collected and counted in a Packard Model 2,000 CA liquid scintillation counter with Picofluor as a scintillation cocktail. NA release was expressed as % of total [³H]-NA incorporated. Total NA incorporation was determined by measuring [³H]-incorporation in 20 µg prelabeled washed synaptosomes.

[7] abbreviates: 16 min, compound added at peak, 16 min after opsonized zymosan, read-out: Peak CL.
Where [8] appears, read: 30 min preincubation, unstimulated, read-out: Spontaneous CL.
Setting [9] is: stimulation with opsonized zymosan after preincubation, read-out: Induced CL.

Read-outs that look alike come from different tables or passages of the source.

In the case of `NCCCCCCNS(=O)(=O)c1cccc2c(Cl)cccc12` [W-7, N-(6-aminohexyl)-5-chloro-1-naphthalene sulfonamide], the IC50 in [1] (setting [7]) came out at 10 µM; in [1] (setting [8]), 6.3 µM; in data set [1] (setting [9]), 6.3 µM. Besides, the Trypane blue with PMHL was 15 µM. The LDH release in the data set on HaCaT cells [2] came out at 100 µM.

As to `CN(C)CCCN1c2ccccc2Sc2ccc(Cl)cc21` [Chlorpromazine], the IC50 in data set [1] (setting [7]) amounted to 21.8 µM; in data set [1] (setting [8]), 4.9 µM; in data set [1] (setting [9]), 7.6 µM. Besides, in the data set with PMHL, the Trypane blue came out at 30 µM. Also, the LDH release in the data set with HaCaT cells [2] is recorded as 30 µM.

In the case of `CC(CN1c2ccccc2Sc2ccccc21)N(C)C` (stereo not drawn) [Promethazine], the IC50 in data set [1] (setting [7]) came to 62.3 µM; in data set [1] (setting [8]) it was 23.6 µM; in data set [1] (setting [9]) it was 31.4 µM. This molecule gave a Trypane blue with PMHL of 100 µM. Moreover, the LDH release in the data set with HaCaT cells [2] was 100 µM.

For `CN[C@@H]1C[C@H]2O[C@@](C)([C@@H]1OC)n1c3ccccc3c3c4c(c5c6ccccc6n2c5c31)C(=O)NC4` [Staurosporine], the Trypane blue in the data set on PMHL was found to be 3 µM. Further, the “spontaneous CE formation” value in data set [3] is given as “marked effect”. Moreover, the effect on morphology entry with HaCaT cells [4] is recorded as “effects on morphology”. In the data set on HaCaT cells [2], the LDH release worked out at 10 µM.

Take `CSc1ccc2c(c1)N(CCC1CCCCN1C)c1ccccc1S2` (stereo not drawn) [Thioridazine]: the values for the IC50 in data set [1] (setting [7]), in data set [1] (setting [8]) and in [1] (setting [9]) were 10.6 µM, 2.4 µM and 6.4 µM, respectively.

As for `CCCCCCCCCCCCC/C=C/[C@@H](O)[C@@H](N)CO` [Sphingosine], the “ear edema (ear thickness), compared with tiflucarbine” value in [5] is reported as “more potent”.

For Polymyxin B, the B-50 phosphorylation entry in data set [6] (in the presence of exogenous CaM (3 units/assay)) is reported as “dose-dependently inhibited”. The “phosphorylation of B-50 (% of control)” value in [6] (concentration 0.1 µM) was 95 ± 8 % of control; in data set [6] (concentration 1 µM), 103 ± 9 % of control; in [6] (concentration 10 µM) it was 82 ± 11 % of control; in [6] (concentration 100 µM), 18 ± 8 % of control. In addition, the “phosphorylation of the 50 kDa protein” value with 50 kDa protein is given as “dose-dependently inhibited”. In addition, the noradrenaline release was 19.4 ± 2.38 % of total [³H]-noradrenaline in the data set with rat brain synaptosomes (high (10 µM) Ca²⁺) and 16.5 ± 1.03 % of total [³H]-noradrenaline in the data set with rat brain synaptosomes (low (10 nM) Ca²⁺).

For `CN1CCN(CCCN2c3ccccc3Sc3ccc(C(F)(F)F)cc32)CC1` [Trifluoroperazine], in the data set with PMHL, the Trypane blue was 100 µM. The same molecule had an LDH release in the data set with HaCaT cells [2] of 30 µM.

The values are drawn from EP0499337A1, “Use of tetra:hydro-thieno-pyrido-indole derivatives for the treatment of skin disorders” (YAMANOUCHI EUROPE B.V., priority 1991, dated 1992).
